{"source": "patent US8519128B2", "about": "“Pyripyropene derivatives having an ACAT2-inhibiting activity” (The Kitasato Institute, priority 2007, dated 2013)", "key": {"ACAT 2": {"target": "T1, ACAT 2 (Mus musculus, UniProt O88908)", "T1 construct": "The source of ACAT 2 enzyme used was a membrane fraction derived from mouse liver microsome; from tissue; host or cells: mouse liver (microsome fraction)", "T1 sequence (O88908 1-525)": "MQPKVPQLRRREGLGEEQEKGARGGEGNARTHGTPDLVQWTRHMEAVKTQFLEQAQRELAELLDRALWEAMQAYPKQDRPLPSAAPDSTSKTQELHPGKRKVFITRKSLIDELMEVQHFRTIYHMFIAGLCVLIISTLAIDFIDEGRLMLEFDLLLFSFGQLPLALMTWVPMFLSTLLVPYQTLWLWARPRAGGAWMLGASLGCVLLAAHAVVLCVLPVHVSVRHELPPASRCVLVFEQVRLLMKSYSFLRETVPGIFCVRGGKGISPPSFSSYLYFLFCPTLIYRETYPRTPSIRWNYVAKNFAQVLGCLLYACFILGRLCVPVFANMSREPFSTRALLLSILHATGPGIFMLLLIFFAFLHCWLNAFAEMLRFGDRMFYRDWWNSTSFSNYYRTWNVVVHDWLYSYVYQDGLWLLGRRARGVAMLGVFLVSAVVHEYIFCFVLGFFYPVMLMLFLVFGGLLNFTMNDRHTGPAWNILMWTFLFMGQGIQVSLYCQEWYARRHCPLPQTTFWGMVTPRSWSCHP", "assay": "ACAT-inhibiting activity, mouse liver microsome membrane fraction, [14C]oleoyl-CoA", "assay_type": "biochemical", "conditions": "for IC50: mouse liver microsome, 5 minutes at 37° C.; for Specific activity: (inhibitory activity of test compound)/(inhibitory activity of pyripyropene A): relative to pyripyropene A", "in_short": "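Enzyme source: mouse liver microsomal membrane fraction (100000×g pellet) at 5 mg/ml protein in 50 mM Tris-HCl pH 7.8, 1 mM EDTA, 1 mM PMSF; substrate [14C]oleoyl-CoA. Chloroform-extracted lipids resolved by silica TLC in hexane/diethyl ether/acetic acid (70:30:1).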"}, "[1]": {"system": "apolipoprotein E-deficient mice", "assay": "Total plasma cholesterol after 14 days of daily oral administration, high-fat feed", "assay_type": "in vivo", "conditions": "for total plasma cholesterol at day 14 (% of day 0): day 0 taken as 100%, control 212.2%; for suppression of the increase in total plasma cholesterol compared with pyripyropene A: oral administration, apolipoprotein E-deficient mice", "method": "Ten-week old apolipoprotein E-deficient mice (males, purchased from Jackson Laboratories) were kept under cycles of artificial light (day) for 12 hours and dark (night) for 12 hours by appropriately feeding a standard high-fat feed (D12079B, Research Diet). Before starting a test for each test compound, 100 μL of blood were collected from the caudal vein of each animal to measure the total cholesterol concentration in plasma using a commercially available kit (Determiner TC 555, Kyowa Medex). […] The test compound was orally administered daily at the start of the artificial light cycle of each day.\nBlood was collected at the start of the artificial light cycle on day 14 of administration of the test compound to measure the total plasma cholesterol. The total plasma cholesterol before administration of the test compound (on day 0) was taken as 100%, and the percent increase in total plasma cholesterol on day 14 after administration of the test compound started was calculated."}}, "data": [{"smiles": "CC(=O)OCC1(C)C2C[C@H](OC(=O)c3ccc(C#N)cc3)[C@@]3(C)Oc4cc(-c5cccnc5)oc(=O)c4[C@H](O)C3[C@@]2(C)CC[C@@H]1OC(C)=O", "note": "(stereo partly drawn) [PRD 017, 7-p-cyanobenzoyl-7-deacetylpyripyropene A]", "values": [{"measurement": "IC50", "setting": "ACAT 2", "result": "10 to 100", "unit": "nM"}, {"measurement": "Specific activity: (inhibitory activity of test compound)/(inhibitory activity of pyripyropene A)", "setting": "ACAT 2", "result": "+++ (50 > specific activity > 10)"}, {"measurement": "total plasma cholesterol at day 14 (% of day 0)", "setting": "[1]; 1 mg/kg oral daily", "result": 161.6, "unit": "%"}, {"measurement": "total plasma cholesterol at day 14 (% of day 0)", "setting": "[1]; 10 mg/kg oral daily", "result": 149.7, "unit": "%"}, {"measurement": "total plasma cholesterol at day 14 (% of day 0)", "setting": "[1]; 50 mg/kg oral daily", "result": 132.5, "unit": "%"}, {"measurement": "suppression of the increase in total plasma cholesterol compared with pyripyropene A", "setting": "[1]", "result": "to a greater degree than did pyripyropene A"}]}, {"smiles": "CC12COC(c3ccccc3)O[C@H]1CC[C@@]1(C)C2C[C@H](OC(=O)c2ccc(C#N)cc2)[C@@]2(C)Oc3cc(-c4cccnc4)oc(=O)c3[C@H](O)C12", "note": "(stereo partly drawn) [PRD 041, 1,11-O-benzylidene-7-O-p-cyanobenzoyl-1,7,11-trideacetylpyripyropene A]", "values": [{"measurement": "IC50", "setting": "ACAT 2", "result": "10 to 100", "unit": "nM"}, {"measurement": "Specific activity: (inhibitory activity of test compound)/(inhibitory activity of pyripyropene A)", "setting": "ACAT 2", "result": "+ (5 > specific activity > 1)"}, {"measurement": "total plasma cholesterol at day 14 (% of day 0)", "setting": "[1]; 1 mg/kg oral daily", "result": 102.4, "unit": "%"}, {"measurement": "total plasma cholesterol at day 14 (% of day 0)", "setting": "[1]; 10 mg/kg oral daily", "result": 88.2, "unit": "%"}, {"measurement": "total plasma cholesterol at day 14 (% of day 0)", "setting": "[1]; 50 mg/kg oral daily", "result": 101.1, "unit": "%"}, {"measurement": "suppression of the increase in total plasma cholesterol compared with pyripyropene A", "setting": "[1]", "result": "to a greater degree than did pyripyropene A"}]}, {"smiles": "CC(C)C(=O)OCC1(C)C2C[C@H](OC(=O)c3ccc(C#N)cc3)[C@@]3(C)Oc4cc(-c5cccnc5)oc(=O)c4[C@H](O)C3[C@@]2(C)CC[C@@H]1OC(=O)C(C)C", "note": "(stereo partly drawn) [PRD 056, 7-O-p-cyanobenzoyl-1,11-di-(O-isobutyryl)-1,7,11-trideacetylpyripyropene A]", "values": [{"measurement": "IC50", "setting": "ACAT 2", "result": "10 to 100", "unit": "nM"}, {"measurement": "Specific activity: (inhibitory activity of test compound)/(inhibitory activity of pyripyropene A)", "setting": "ACAT 2", "result": "+++ (50 > specific activity > 10)"}, {"measurement": "total plasma cholesterol at day 14 (% of day 0)", "setting": "[1]; 1 mg/kg oral daily", "result": 148.0, "unit": "%"}, {"measurement": "total plasma cholesterol at day 14 (% of day 0)", "setting": "[1]; 10 mg/kg oral daily", "result": 114.8, "unit": "%"}, {"measurement": "total plasma cholesterol at day 14 (% of day 0)", "setting": "[1]; 50 mg/kg oral daily", "result": 86.1, "unit": "%"}, {"measurement": "suppression of the increase in total plasma cholesterol compared with pyripyropene A", "setting": "[1]", "result": "to a greater degree than did pyripyropene A"}]}]}
